# Assay results: patent CN110478361A, “一种安全性高的灯盏花乙素药物组合物及其制备方法” (KUNMING LONGJIN PHARMACEUTICAL CO Ltd, priority 2018, dated 2019)
# Assays:
# [1] = Clarity test (compared with yellow-green No. 6 standard colour solution, Chinese Pharmacopoeia 2015, general chapter 0901, method 1); type: physicochemical; details: 0.02 mg per mL in 1% sodium hydrogencarbonate solution, inspected within 5 minutes
# [2] = Single-dose intravenous toxicity in SD rats; type: in vivo, rat; details: in vivo, iv; SD rat, single i.v., injectable breviscapine made from Example 1; 500, 750, 1000 mg/kg; 14 days observation; read-out: maximum tolerated dose (MTD)
# SD rats (SD大鼠) [3] = test: Single-dose intravenous toxicity in SD rats; type: in vivo, rat; details: worked out from rat single i.v. MTD
# [4] = Repeated-dose intravenous toxicity in SD rats, four weeks with four-week recovery; type: in vivo, rat; details: in vivo, iv; SD rat, i.v. once daily, 28 days, recovery 29 days; 200, 400, 600 mg/kg; injectable breviscapine made from Example 1; read-out: no observed adverse effect level (NOAEL)
# SD rats (SD大鼠) [5] = test: as above; type: in vivo, rat; details: worked out from rat 28-day i.v. NOAEL
# [6] = Single-dose intravenous toxicity in Beagle dogs; type: in vivo, dog; details: in vivo, iv; Beagle dog, single i.v., injectable breviscapine made from Example 1; 200, 400 mg/kg; 14 days observation; read-out: maximum tolerated dose (MTD)
# Beagle dogs (Beagle犬) [7] = test: Single-dose intravenous toxicity in Beagle dogs; type: in vivo, dog; details: worked out from dog single i.v. MTD
# [8] = Repeated-dose intravenous toxicity in Beagle dogs, four weeks with four-week recovery; type: in vivo, dog; details: in vivo, iv; Beagle dog, i.v. once daily, 28 days, recovery 28 days; 25, 50, 100 mg/kg; injectable breviscapine made from Example 1; read-out: no observed adverse effect level (NOAEL)
# Beagle dogs (Beagle犬) [9] = test: as above; type: in vivo, dog; details: worked out from dog 28-day i.v. NOAEL
# [10] = Single-dose oral gavage toxicity in SD rats; type: in vivo, rat; details: in vivo; SD rat, single oral gavage, 5000 mg/kg; 14 days observation; read-out: maximum administered dose
# SD rats (SD大鼠) [11] = test: Single-dose oral gavage toxicity in SD rats; type: in vivo, rat; details: worked out from rat single oral dose
# [12] = tested on: rat dementia caused by kainic acid (海人藻酸所致大鼠痴呆); details: male Wistar rats; cited from earlier work
# [13] = tested on: rat dementia caused by β-amyloid (β-淀粉样蛋白致大鼠痴呆); details: male Wistar rats; cited from earlier work
# [14] = tested on: reflux oesophagitis and gastritis (反流性食道炎以及抗胃炎); details: cited from earlier work
# [15] = in air; cited from earlier work
# [16] = aglycone and active metabolite of scutellarin, compared with scutellarin; cited from earlier work
# [17] = compared with apigenin and omeprazole
smiles,measurement,setting,value
O=C(O)[C@H]1O[C@@H](Oc2cc3oc(-c4ccc(O)cc4)cc(=O)c3c(O)c2O)[C@H](O)[C@@H](O)[C@@H]1O [实施例1],clarity test conclusion,[1],符合规定
same,MTD at 336 h,[2],750 mg/kg
same,equivalent human daily intake of the MTD,SD rats (SD大鼠) [3],7500 mg
same,NOAEL at 672 h,[4],200 mg/kg
same,equivalent human daily intake of the NOAEL,SD rats (SD大鼠) [5],2000 mg
same,MTD at 336 h,[6],200 mg/kg
same,equivalent human daily intake of the MTD,Beagle dogs (Beagle犬) [7],6666 mg
same,NOAEL at 672 h,[8],25 mg/kg
same,equivalent human daily intake of the NOAEL,Beagle dogs (Beagle犬) [9],833.3 mg
O=C(O)[C@H]1O[C@@H](Oc2cc3oc(-c4ccc(O)cc4)cc(=O)c3c(O)c2O)[C@H](O)[C@@H](O)[C@@H]1O [实施例2],MTD at 336 h,[10],5000 mg/kg
same,equivalent human daily intake of the maximum administered dose,SD rats (SD大鼠) [11],50 g
"O=C(O)[C@H]1O[C@@H](Oc2cc(O)c3c(=O)cc(-c4ccc(O)cc4)oc3c2)[C@H](O)[C@@H](O)[C@@H]1O [5,4’-二羟基黄酮-7-O-β-D-葡萄糖醛酸]",effect on pathological changes of brain tissue,[12],有一定改善作用
same,effect on pathological damage of cerebral cortex and hippocampus,[13],可减轻β-淀粉样蛋白所致大鼠脑皮层及海马的病理损害
same,therapeutic effect on dementia,[13],有一定的治疗作用
same,anti-reflux-oesophagitis and anti-gastritis effect,[14]; [17],比芹菜素和奥美拉唑更有效
same,reduction of the extent of gastric lesions,[14]; [17],比芹菜素和奥美拉唑更能有效的减小胃损伤范围
same,MOA content produced by induced reflux oesophagitis,"[14]; mouse, in vivo",减少由诱导反流性食管炎而产生的MOA的含量
same,antioxidant activity,"[14]; mouse, in vivo",有抗氧化活性
same,glutathione (GSH) produced in acute oesophagitis,"[14]; mouse, in vivo",清除急性食管炎产生的谷胱甘肽(GSH)
O=c1cc(-c2ccc(O)cc2)oc2cc(O)c(O)c(O)c12 [野黄芩素],stability,[15],在空气中易氧化变为醌类衍生物
same,related biological activity,[16],更强相关生物活性
